Measured values published in PubChem BioAssay (NCI).
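Test compounds were applied to cells in 96-well plates for 48 hours at 5 doses. TGI: concentration producing complete growth inhibition.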

Key:
Assay in all cases: growth of human tumour cells (NCI), 48 h
OVCAR-4 ovarian = system: OVCAR-4 ovarian
OVCAR-8 ovarian = system: OVCAR-8 ovarian
OVCAR-5 ovarian = system: OVCAR-5 ovarian
T-47D breast = system: T-47D breast
COLO 205 colon = system: COLO 205 colon
MDA-MB-435 = system: MDA-MB-435
EKVX NSCLC = system: EKVX NSCLC
MDA-N = system: MDA-N
PC-3 prostate = system: PC-3 prostate
SF-539 CNS = system: SF-539 CNS
CCRF-CEM leukemia = system: CCRF-CEM leukemia
LOX IMVI melanoma = system: LOX IMVI melanoma
SNB-75 CNS = system: SNB-75 CNS
MALME-3M melanoma = system: MALME-3M melanoma
ACHN renal = system: ACHN renal
UO-31 renal = system: UO-31 renal
NCI-H460 lung = system: NCI-H460 lung
SK-OV-3 ovarian = system: SK-OV-3 ovarian
SF-268 CNS = system: SF-268 CNS
HCT-116 colon = system: HCT-116 colon
K-562 leukemia = system: K-562 leukemia
UACC-257 melanoma = system: UACC-257 melanoma
HCT-15 colon = system: HCT-15 colon
NCI-H23 lung = system: NCI-H23 lung
NCI-H226 lung = system: NCI-H226 lung
MDA-MB-231 breast = system: MDA-MB-231 breast
HCC-2998 colon = system: HCC-2998 colon
NCI/ADR-RES ovarian = system: NCI/ADR-RES ovarian
KM12 colon = system: KM12 colon
A498 renal = system: A498 renal
MCF7 breast = system: MCF7 breast
SW-620 colon = system: SW-620 colon
SK-MEL-28 melanoma = system: SK-MEL-28 melanoma
RXF 393 renal = system: RXF 393 renal
A549 NSCLC = system: A549 NSCLC
U251 CNS = system: U251 CNS
SF-295 CNS = system: SF-295 CNS
NCI-H522 lung = system: NCI-H522 lung
SNB-19 CNS = system: SNB-19 CNS
OVCAR-3 ovarian = system: OVCAR-3 ovarian
HOP-62 NSCLC = system: HOP-62 NSCLC
TK-10 renal = system: TK-10 renal
SK-MEL-5 melanoma = system: SK-MEL-5 melanoma
IGROV1 ovarian = system: IGROV1 ovarian
CAKI-1 renal = system: CAKI-1 renal
BT-549 breast = system: BT-549 breast
SK-MEL-2 melanoma = system: SK-MEL-2 melanoma
M14 melanoma = system: M14 melanoma
786-0 renal = system: 786-0 renal
SN12C renal = system: SN12C renal
MOLT-4 leukemia = system: MOLT-4 leukemia

COP(=O)(CP(=O)(OC)OCCC(C)CCC=C(C)C)OC (stereo unspecified)
TGI (OVCAR-4 ovarian): > 100 µM | TGI (OVCAR-8 ovarian): > 100 µM | TGI (OVCAR-5 ovarian): > 100 µM | TGI (T-47D breast): > 100 µM | TGI (COLO 205 colon): > 100 µM | TGI (MDA-MB-435): > 100 µM | TGI (EKVX NSCLC): > 100 µM | TGI (MDA-N): > 100 µM | TGI (PC-3 prostate): > 100 µM | TGI (SF-539 CNS): > 100 µM | TGI (CCRF-CEM leukemia): > 100 µM | TGI (LOX IMVI melanoma): > 100 µM | TGI (SNB-75 CNS): > 100 µM | TGI (MALME-3M melanoma): > 100 µM | TGI (ACHN renal): > 100 µM | TGI (UO-31 renal): > 100 µM | TGI (NCI-H460 lung): > 100 µM | TGI (SK-OV-3 ovarian): > 100 µM | TGI (SF-268 CNS): > 100 µM | TGI (HCT-116 colon): > 100 µM | TGI (K-562 leukemia): > 100 µM | TGI (UACC-257 melanoma): > 100 µM | TGI (HCT-15 colon): > 100 µM | TGI (NCI-H23 lung): > 100 µM | TGI (NCI-H226 lung): > 100 µM | TGI (MDA-MB-231 breast): 44.7 µM | TGI (HCC-2998 colon): > 100 µM | TGI (NCI/ADR-RES ovarian): > 100 µM | TGI (KM12 colon): > 100 µM | TGI (A498 renal): > 100 µM | TGI (MCF7 breast): > 100 µM | TGI (SW-620 colon): > 100 µM | TGI (SK-MEL-28 melanoma): > 100 µM | TGI (RXF 393 renal): > 100 µM | TGI (A549 NSCLC): > 100 µM | TGI (U251 CNS): 87.8 µM | TGI (SF-295 CNS): > 100 µM | TGI (NCI-H522 lung): > 100 µM | TGI (SNB-19 CNS): > 100 µM | TGI (OVCAR-3 ovarian): > 100 µM | TGI (HOP-62 NSCLC): > 100 µM | TGI (TK-10 renal): > 100 µM | TGI (SK-MEL-5 melanoma): > 100 µM | TGI (IGROV1 ovarian): > 100 µM | TGI (CAKI-1 renal): > 100 µM | TGI (BT-549 breast): > 100 µM | TGI (SK-MEL-2 melanoma): > 100 µM | TGI (M14 melanoma): > 100 µM | TGI (786-0 renal): > 100 µM | TGI (SN12C renal): > 100 µM | TGI (MOLT-4 leukemia): > 100 µM
